Reference: publication PMC12501849, “Design, synthesis and evaluation of arylpurine-based sinefungin mimetics as zika virus methyltransferase inhibitors” (RSC Advances, 2025)
“Also recorded” adds a separate entry of the source.

Key:
[1] = parameters: method as in PMID 30170321; conditions: cited from earlier work
ZIKV MTase [2] = molecular target: T1, ZIKV MTase (Zika virus, UniProt A0A024B7W1); assay: Filter binding assay (FBA), ZIKV 2′-O-MTase activity; format: biochemical; conditions: for inhibition at 50 µM: 2′-O-MTase activity, compound at 50 μM, read-out: Percentage of inhibition of ZIKV MTase
T1 construct: the ZIKV NS5 MTase (aa 4-278) domain were synthesized (Genscript); His6 (N); made in house; host or cells: Escherichia coli T7 Express Iq
T1 sequence (A0A024B7W1 2524-2798): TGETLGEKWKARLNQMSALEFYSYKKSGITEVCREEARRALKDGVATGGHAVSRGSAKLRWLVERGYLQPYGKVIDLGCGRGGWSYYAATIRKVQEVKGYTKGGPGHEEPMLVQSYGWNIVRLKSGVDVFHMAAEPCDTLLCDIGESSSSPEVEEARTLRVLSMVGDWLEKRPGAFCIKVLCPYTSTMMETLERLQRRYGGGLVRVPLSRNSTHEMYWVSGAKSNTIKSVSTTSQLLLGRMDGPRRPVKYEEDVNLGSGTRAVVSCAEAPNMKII
Protocol: (§1) The synthesized arylpurines were evaluated for their inhibitory activity against the 2′-O-MTase activity of ZIKV and DENV3 MTases by quantification of [^3H]-methyl transfer from the [^3H]-SAM on short synthetic capped RNA (GpppAC4), by using a filter binding assay (FBA).[13,33] The universal methyltransferase inhibitor sinefungin was included as a positive control (Table 1), whose IC50 value against ZIKV MTase has already been reported using a similar assay.[13] We assessed MTase inhibition by testing the synthesized compounds at a concentration of 50 μM.
(§2) Proteins were produced and purified as previously described.[13] Briefly, the coding sequence of ZIKV NS5 (aa 4-903) and the ZIKV NS5 MTase (aa 4-278) domain were synthesized (Genscript) based on the sequence of the ZIKV strain H/PF/2013 (GenBank accession no. KJ776791.2) and then cloned into a pQE30 (Qiagen) plasmid with an N-terminal His6 tag. The MTase domains (aa 4-278 and aa 1-264) were produced in Escherichia coli T7 Express Iq (New England BioLabs). Cells were grown in Terrific Broth at 37 °C until the optical density at 600 nm (OD600) reached 0.6. Protein expression was then induced by 0.5 mM IPTG (isopropyl-β-D-thiogalactopyranoside) at 17 °C overnight. Bacteria were harvested by centrifugation. The bacterial pellets from a 2-liter bacterial culture were resuspended in 100 ml lysis buffer (50 mM Tris–HCl [pH 8], 300 mM NaCl, 5% glycerol, 0.1% Triton, 10 μg per ml DNase I, 2 tablets of EDTA-free antiprotease cocktail [Roche], 0.25 mg per ml lysozyme). After 30 min of incubation at 4 °C, cells were sonicated and clarified by centrifugation prior to immobilized metal affinity chromatography (IMAC) purification on a 5-mL His prep column (GE Healthcare), with elution in 50 mM Tris–HCl, 300 mM NaCl, and 250 mM imidazole (pH 8.0). The eluted protein was then loaded on a 16/60 Superdex 200 (GE Healthcare) equilibrated in a mixture of 10 mM HEPES, 500 mM NaCl, glycerol 5%, and 1 mM dithiothreitol (DTT [pH 7.5]).
(§3) The FBA MTase assay was carried out in a reaction mixture [40 mM Tris–HCl (pH 8.0), 1 mM DTT, 1.9 μM SAM, and 0.1 μM ^3H-SAM (PerkinElmer)] in the presence of 0.7 μM GpppAC4 synthetic RNA and the MTase (500 nM), according to the method previously described.[39] Briefly, the MTase was first mixed with the compound suspended in DMSO (5% final DMSO) before the addition of RNA substrate and SAM and then incubated at 30 °C. Reactions mixtures were stopped after 30 min by their 10-fold dilution in ice-cold water. Samples were transferred to diethylaminoethyl (DEAE) filtermat (PerkinElmer) using a Filtermat Harvester (Packard Instruments). The RNA-retaining mats were washed twice with 10 mM ammonium formate pH 8.0, twice with water and once with ethanol. They were soaked with scintillation fluid (PerkinElmer), and ^3H-methyl transfer to the RNA substrates was determined using a Wallac MicroBeta TriLux liquid scintillation counter (PerkinElmer).

DENV3 MTase [3] = molecular target: T2, DENV3 MTase (Dengue virus type 3, UniProt P27915); assay: Filter binding assay (FBA), DENV3 2′-O-MTase activity; format: biochemical; conditions: for inhibition at 50 µM: 2′-O-MTase activity, compound at 50 μM, read-out: Percentage of inhibition of DENV3 MTase
T2 construct: the MTase activity is located at the N-terminal of the viral NS5 protein; made in house
T2 sequence (P27915 2492-2753): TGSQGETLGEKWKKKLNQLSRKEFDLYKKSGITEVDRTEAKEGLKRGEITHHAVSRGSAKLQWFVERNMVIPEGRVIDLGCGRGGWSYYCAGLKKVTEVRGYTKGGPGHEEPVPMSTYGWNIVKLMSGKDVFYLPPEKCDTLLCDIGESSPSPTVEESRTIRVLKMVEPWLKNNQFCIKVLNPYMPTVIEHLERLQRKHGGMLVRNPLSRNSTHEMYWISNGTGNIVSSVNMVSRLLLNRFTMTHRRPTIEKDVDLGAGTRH
Protocol: as §1, §2, §3

DENV3 MTase [4] = molecular target: T2, DENV3 MTase; parameters: method as in PMID 28031359; conditions: cited from earlier work
ZIKV MTase [5] = molecular target: T1, ZIKV MTase; parameters: method as in PMID 28031359; conditions: cited from earlier work
[6] = Cytotoxicity in non-infected SH-SY5Y cells; format: cell-based; conditions: human, SH-SY5Y neuroblastoma cells, 50% cytotoxic concentration
Protocol: (§4) Assessment of the antiviral activity against ZIKV in VeroE6 cells (African green monkey kidney cells; Vero 76, clone E6; ATCC: Cat# CRL-1586) was done as previously described.[35] The antiviral assays in the neuroblastoma SH-SY5Y cells (CRL-2266; ATCC) were conducted as follows: SH-SY5Y cells were seeded in assay medium (MEM supplemented with 2% fetal bovine serum, 2 mM L-glutamine and 0.075% sodium bicarbonate; all from Thermo Fisher Scientific) at a density of 15 000 cells/well in 96-well plates. Cells were incubated overnight at 37 °C and 5% CO2. The next day, a serial dilution of the compounds was added to the cells, followed by inoculation of the cells with ZIKV MR766 (MOI = 0.01). Following a 7-day incubation at 37 °C and 5% CO2, ZIKV-induced cytopathic effect was determined by means of the MTS readout method, analogous to the assay with the VeroE6 cells.[35] The 50% effective concentration (the compound concentration that is required to inhibit virus-induced CPE by 50%; EC50) and the 50% cytotoxic concentration (i.e. the compound concentration that is required to inhibit the cell growth by 50%; CC50) was determined using logarithmic interpolation.

ZIKV MR766 = assay: Antiviral assay against ZIKV in SH-SY5Y cells (CPE, MTS readout); format: cell-based, zika virus
Protocol: (§5) These compounds were next evaluated for their antiviral effect on ZIKV replication in Vero E6 and SH-SY5Y cells. 7-Deaza-2′-C-methyladenosine (7DMA), a viral polymerase inhibitor,[35] was included as a positive control.
Besides the standard assays in VeroE6 cells, the compounds were also tested in SH-SY5Y cells. […] Thus, they function as a relevant neuronal cell-based model of ZIKV infection.[38]
as §4

VeroE6 cells = assay: Cytotoxicity in non-infected VeroE6 cells; format: cell-based, African green monkey
Protocol: as §4

[7] = Cytotoxicity in non-infected VeroE6 cells; format: cell-based, African green monkey; conditions: African green monkey, non-infected, 50% cytotoxic concentration
Protocol: as §4

ZIKV = assay: Antiviral assay against ZIKV in VeroE6 cells (CPE, MTS readout); format: cell-based, zika virus; conditions: for EC50: concentration that protects 50% of the cells from virus-induced cytopathic effect
Protocol: as §5, §4

For `Nc1ncnc2c1ncn2[C@@H]1O[C@H](C[C@@H](N)CC[C@H](N)C(=O)O)[C@@H](O)[C@H]1O` [Sinefungin], the “Antiviral activity in cell culture (in words)” value [1] is given as “lack of antiviral activity”, the inhibition at 50 µM (ZIKV MTase [2]) is given as 97.9% and the inhibition at 50 µM (DENV3 MTase [3]) is given as 96.8%. For the same compound, the “DENV MTase inhibition (in words)” value (DENV3 MTase [4]) was “potent” and the “ZIKV MTase inhibition (in words)” value (ZIKV MTase [5]) was “potent”.
For `Cc1ncnc2c1ccn2-c1cccc(N(CC[C@H](N)C(N)=O)CCC(C)(C)C)c1` [Compound 18, (S)-2-Amino-4-((3,3-dimethylbutyl)(3-(4-methyl-7H-pyrrolo[2,3-d]pyrimidin-7-yl)phenyl)amino) butanamide], the CC50 at 7 days [6] was 61 µM, the EC50 (ZIKV MR766; Zika virus, 168 h, SH-SY5Y cells, ZIKV MR766, MOI 0.01, 7-day incubation) was greater than 100 µM and the “Antiviral activity against ZIKV in SH-SY5Y cells (in words)” value (ZIKV MR766; neuroblastoma SH-SY5Y cells) was “not confirmed”. For the same compound, the “CC50 relative to EC50 (fold higher)” value (VeroE6 cells) was roughly 3 fold, the CC50 [7] was 66.2 ± 3.9 µM and the EC50 (ZIKV; VeroE6 cells) was 27.2 ± 0.2 µM. The EC50 (ZIKV; Zika virus, Vero C1008, VeroE6 cells) was 27 µM, the IC50 (ZIKV; Zika virus, Vero C1008, Vero E6 cells, read-out: IC50 (antiviral activity in cell culture)) was 27.2 ± 0.2 µM and the “Antiviral activity against ZIKV (in words)” value (ZIKV; cell-based assay) was “modest antiviral activity”. The inhibition at 50 µM (ZIKV MTase [2]) was 10.8%, the “Effect on 2′-O-MTase activity of ZIKV (in words)” value (ZIKV MTase [2]; tested at 50 μM) was “inhibited; also recorded: modest inhibition” and the inhibition at 50 µM (DENV3 MTase [3]) was 10.1%. The “Effect on 2′-O-MTase activity of DENV3 (in words)” value (DENV3 MTase [3]; tested at 50 μM) was “modest inhibition”.
